This note sets out measurements from patent US20090130064A1, “DIFFERENTIATION OF STEM CELLS AND STABILIZATION OF PHENOTYPICAL PROPERTIES OF PRIMARY CELLS” (priority 2004, published 2009).

Molecules are shown by their SMILES.

The test system of experiment [1] is C/EBPalpha. Kind of experiment: Western blotting of C/EBPalpha in primary hepatocytes. Type of experiment: cell-based, rat. To be noted: 1 μM TSA added at 0h or 4 h; day 4 and 7. The source says: Hepatocytes were isolated from male Sprague-Dawley rats by a two-step collagenase perfusion as described (De Smet et al. In ‘Methods in Molecular Biology, Vol. 107: Cytochrome P450 Protocols’, Philips IR and Shephard E A, eds., p.p 295-301, Humana Press, Totowa, 1998). Hepatocytes were cultivated in monolayer cultures with Willam's E Medium (WE) for 7 days. […] The maintenance of differentiation characteristics was studied after 2, 4, and 7 days (D2, D4, D7) of culture.
Western blotting was performed using standard techniques known in the art. Proteins (25 μg) were resolved on a 10% SDS-PAGE and blotted onto nitrocellulose membrane. The membranes were incubated with appropriate concentrations of primary and secondary antibodies. Proteins were detected using appropriate dilutions of primary and secondary antibodies. Detection was done using the ECL detection system (Amersham Pharmacia Biotech, UK) according to manufacturer's recommendations.
On the technique in general: Immunoblotting shows a protein as a band on a membrane.

For experiment [2], the system named is rat hepatocytes. Nature of the experiment: Albumin ELISA in primary rat hepatocyte monolayers (conditions C1, C2). Type of experiment: cell-based. The settings on record: 1 μM TSA; from D4 (C2) or D7 (C1) on. On the procedure:
In all conditions, the hepatocytes were cultivated as a monolayer configuration, and samples were taken at days 1, 4 and 7 (D1, D4, D7) of the cultivation time.
ALB concentrations secreted into the media were analysed by competitive enzyme-linked immunosorbent assay (ELISA) as described (Koebe et al. Int J Artif Organs 17: 95-106, 1994). The ALB levels were normalized with respect to the media used.
A general note: An ELISA detects its analyte on a solid surface through an enzyme-linked reagent.

As for `CC(C=CC(=O)NO)=CC(C)C(=O)c1ccc(N(C)C)cc1` (centres unmarked) [TSA], the “expression of C/EBPalpha” value in experiment [1] is “increase expression”. The albumin secretion entry in experiment [2] is reported as “improves albumin secretion”.
